Source: PubChem BioAssay (NCI)
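Where inhibition never reached the appropriate level, the endpoint shown equals the highest concentration tested. Otherwise, values were interpolated linearly from a five-concentration, 48-hour dose response in 96-well plates. TGI: total growth inhibition.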

Experiments:
Assay in all cases: NCI-60 cell line screen, 48 h
HOP-92 NSCLC = tested on: HOP-92 NSCLC
MCF7 breast = tested on: MCF7 breast
M14 melanoma = tested on: M14 melanoma
OVCAR-8 ovarian = tested on: OVCAR-8 ovarian
SF-295 CNS = tested on: SF-295 CNS
K-562 leukemia = tested on: K-562 leukemia
U251 CNS = tested on: U251 CNS
HCC-2998 colon = tested on: HCC-2998 colon
HT29 colon = tested on: HT29 colon
HL-60(TB) leukemia = tested on: HL-60(TB) leukemia
MOLT-4 leukemia = tested on: MOLT-4 leukemia
CAKI-1 renal = tested on: CAKI-1 renal
SR leukemia = tested on: SR leukemia
MALME-3M melanoma = tested on: MALME-3M melanoma
786-0 renal = tested on: 786-0 renal
A498 renal = tested on: A498 renal
MDA-MB-231 breast = tested on: MDA-MB-231 breast
NCI-H460 lung = tested on: NCI-H460 lung
SNB-19 CNS = tested on: SNB-19 CNS

## CC(=O)c1c2c(cc3c1CC1(Cc4cc5c(cc4C1)C(=O)CCC5)C3)CCCC2 (configuration not stated)
HOP-92 NSCLC
  TGI: 40.1 µM
MCF7 breast
  TGI: 18.7 µM
M14 melanoma
  TGI: > 100 µM
OVCAR-8 ovarian
  TGI: > 80.6 µM
SF-295 CNS
  TGI: > 45.5 µM
K-562 leukemia
  TGI: 4.79 µM
U251 CNS
  TGI: > 100 µM
HCC-2998 colon
  TGI: 97.9 µM
HT29 colon
  TGI: > 32.7 µM
HL-60(TB) leukemia
  TGI: 4.17 µM
MOLT-4 leukemia
  TGI: 7.96 µM
CAKI-1 renal
  TGI: > 100 µM
SR leukemia
  TGI: 5.53 µM
MALME-3M melanoma
  TGI: > 100 µM
786-0 renal
  TGI: 33.1 µM
A498 renal
  TGI: 8.95 µM
MDA-MB-231 breast
  TGI: 55.1 µM
NCI-H460 lung
  TGI: 67.2 µM
SNB-19 CNS
  TGI: 80.9 µM

## COc1ccc2nc3n(c2c1)C(c1c(F)cccc1F)SC3 (configuration not stated)
HOP-92 NSCLC
  TGI: > 100 µM
MCF7 breast
  TGI: > 100 µM
M14 melanoma
  TGI: > 100 µM
OVCAR-8 ovarian
  TGI: > 100 µM
SF-295 CNS
  TGI: > 100 µM
K-562 leukemia
  TGI: > 100 µM
U251 CNS
  TGI: > 100 µM
HCC-2998 colon
  TGI: > 100 µM
HT29 colon
  TGI: > 100 µM
HL-60(TB) leukemia
  TGI: 78.7 µM
MOLT-4 leukemia
  TGI: > 100 µM
CAKI-1 renal
  TGI: > 100 µM
SR leukemia
  TGI: > 100 µM
786-0 renal
  TGI: > 100 µM
A498 renal
  TGI: > 100 µM
MDA-MB-231 breast
  TGI: > 100 µM
NCI-H460 lung
  TGI: > 100 µM
SNB-19 CNS
  TGI: 93.3 µM

## Clc1ccc(C(Cc2ccccc2)c2c(Cl)nc(N3CCNCC3)nc2Cl)cc1 (configuration not stated)
HOP-92 NSCLC
  TGI: 25.7 µM
MCF7 breast
  TGI: 20 µM
M14 melanoma
  TGI: 29.7 µM
OVCAR-8 ovarian
  TGI: 27.3 µM
SF-295 CNS
  TGI: 36 µM
K-562 leukemia
  TGI: 17.8 µM
U251 CNS
  TGI: 26.9 µM
HCC-2998 colon
  TGI: 26 µM
HT29 colon
  TGI: 6.27 µM
HL-60(TB) leukemia
  TGI: 10.7 µM
MOLT-4 leukemia
  TGI: 15.9 µM
CAKI-1 renal
  TGI: 18 µM
SR leukemia
  TGI: 3.71 µM
MALME-3M melanoma
  TGI: 28.4 µM
786-0 renal
  TGI: 30.1 µM
A498 renal
  TGI: 24.8 µM
MDA-MB-231 breast
  TGI: 26.9 µM
NCI-H460 lung
  TGI: 30.2 µM
SNB-19 CNS
  TGI: 28.6 µM

## CC1(C)OC[C@H](COCOP2(=O)Oc3ccc4ccccc4c3-c3c(ccc4ccccc34)O2)O1
HOP-92 NSCLC
  TGI: 28.5 µM
MCF7 breast
  TGI: 12.2 µM
M14 melanoma
  TGI: 32 µM
OVCAR-8 ovarian
  TGI: 63.3 µM
SF-295 CNS
  TGI: 32.2 µM
K-562 leukemia
  TGI: 80.6 µM
U251 CNS
  TGI: 31.9 µM
HCC-2998 colon
  TGI: 31.3 µM
HT29 colon
  TGI: 31.3 µM
HL-60(TB) leukemia
  TGI: 48.5 µM
MOLT-4 leukemia
  TGI: 41.4 µM
SR leukemia
  TGI: 45.6 µM
MALME-3M melanoma
  TGI: 37.2 µM
786-0 renal
  TGI: 81.6 µM
A498 renal
  TGI: 31 µM
MDA-MB-231 breast
  TGI: 31 µM
NCI-H460 lung
  TGI: 33.3 µM
SNB-19 CNS
  TGI: 34.7 µM

## COc1ccc(CCc2ccc3c(c2)OCO3)cc1
HOP-92 NSCLC
  TGI: > 100 µM
MCF7 breast
  TGI: > 100 µM
M14 melanoma
  TGI: > 100 µM
OVCAR-8 ovarian
  TGI: > 100 µM
SF-295 CNS
  TGI: > 100 µM
K-562 leukemia
  TGI: > 100 µM
U251 CNS
  TGI: > 100 µM
HCC-2998 colon
  TGI: > 100 µM
HT29 colon
  TGI: > 100 µM
HL-60(TB) leukemia
  TGI: > 100 µM
MOLT-4 leukemia
  TGI: > 100 µM
CAKI-1 renal
  TGI: > 100 µM
SR leukemia
  TGI: 45.4 µM
MALME-3M melanoma
  TGI: > 100 µM
786-0 renal
  TGI: > 100 µM
A498 renal
  TGI: > 100 µM
MDA-MB-231 breast
  TGI: > 100 µM
NCI-H460 lung
  TGI: > 100 µM
SNB-19 CNS
  TGI: > 100 µM

## O=c1[nH]c2ccc(Cl)cc2o1
HOP-92 NSCLC
  TGI: > 100 µM
MCF7 breast
  TGI: > 100 µM
M14 melanoma
  TGI: > 100 µM
OVCAR-8 ovarian
  TGI: > 100 µM
SF-295 CNS
  TGI: > 100 µM
K-562 leukemia
  TGI: > 100 µM
U251 CNS
  TGI: > 100 µM
HT29 colon
  TGI: > 100 µM
HL-60(TB) leukemia
  TGI: > 100 µM
MOLT-4 leukemia
  TGI: > 100 µM
CAKI-1 renal
  TGI: > 100 µM
SR leukemia
  TGI: > 100 µM
MALME-3M melanoma
  TGI: > 100 µM
786-0 renal
  TGI: > 100 µM
A498 renal
  TGI: > 100 µM
MDA-MB-231 breast
  TGI: > 100 µM
NCI-H460 lung
  TGI: > 100 µM
SNB-19 CNS
  TGI: > 100 µM

## Cc1ccc2c(c1)C=CC1(O2)N(c2ccccc2)C(=S)OC1(C)C (configuration not stated)
HOP-92 NSCLC
  TGI: > 100 µM
MCF7 breast
  TGI: > 100 µM
M14 melanoma
  TGI: > 100 µM
OVCAR-8 ovarian
  TGI: > 100 µM
SF-295 CNS
  TGI: > 100 µM
K-562 leukemia
  TGI: > 100 µM
U251 CNS
  TGI: > 100 µM
HCC-2998 colon
  TGI: > 100 µM
HT29 colon
  TGI: > 100 µM
HL-60(TB) leukemia
  TGI: 31.2 µM
MOLT-4 leukemia
  TGI: > 100 µM
CAKI-1 renal
  TGI: > 100 µM
SR leukemia
  TGI: 78.9 µM
786-0 renal
  TGI: > 100 µM
A498 renal
  TGI: > 100 µM
MDA-MB-231 breast
  TGI: > 100 µM
NCI-H460 lung
  TGI: > 100 µM
SNB-19 CNS
  TGI: > 100 µM

## Cc1cccc(Nc2nc3ccccc3nc2NS(=O)(=O)c2ccccc2)c1
HOP-92 NSCLC
  TGI: 63.7 µM
MCF7 breast
  TGI: > 100 µM
M14 melanoma
  TGI: > 100 µM
OVCAR-8 ovarian
  TGI: > 100 µM
SF-295 CNS
  TGI: > 100 µM
K-562 leukemia
  TGI: > 100 µM
U251 CNS
  TGI: 59 µM
HCC-2998 colon
  TGI: 6.93 µM
HT29 colon
  TGI: > 100 µM
HL-60(TB) leukemia
  TGI: 37.8 µM
MOLT-4 leukemia
  TGI: 61.6 µM
CAKI-1 renal
  TGI: > 100 µM
SR leukemia
  TGI: > 100 µM
MALME-3M melanoma
  TGI: > 100 µM
786-0 renal
  TGI: > 100 µM
MDA-MB-231 breast
  TGI: > 100 µM
NCI-H460 lung
  TGI: 51.4 µM
SNB-19 CNS
  TGI: 91.5 µM

## C1=Nc2ccc(cc2)-c2ccc(cc2)N=Cc2ccc(cc2)OCc2cccc(n2)COc2ccc1cc2
HOP-92 NSCLC
  TGI: > 100 µM
MCF7 breast
  TGI: > 100 µM
M14 melanoma
  TGI: > 100 µM
OVCAR-8 ovarian
  TGI: > 100 µM
SF-295 CNS
  TGI: > 100 µM
K-562 leukemia
  TGI: > 100 µM
U251 CNS
  TGI: > 100 µM
HT29 colon
  TGI: > 100 µM
HL-60(TB) leukemia
  TGI: > 100 µM
MOLT-4 leukemia
  TGI: > 100 µM
CAKI-1 renal
  TGI: > 100 µM
SR leukemia
  TGI: > 100 µM
MALME-3M melanoma
  TGI: > 100 µM
786-0 renal
  TGI: > 100 µM
A498 renal
  TGI: > 100 µM
MDA-MB-231 breast
  TGI: > 100 µM
NCI-H460 lung
  TGI: > 100 µM
SNB-19 CNS
  TGI: > 100 µM

## CNn1c(-c2ccc(C)cc2)n[nH]c1=O
HOP-92 NSCLC
  TGI: > 100 µM
MCF7 breast
  TGI: > 100 µM
M14 melanoma
  TGI: > 100 µM
OVCAR-8 ovarian
  TGI: > 100 µM
SF-295 CNS
  TGI: > 100 µM
K-562 leukemia
  TGI: > 100 µM
U251 CNS
  TGI: > 100 µM
HCC-2998 colon
  TGI: > 100 µM
HT29 colon
  TGI: > 100 µM
MOLT-4 leukemia
  TGI: > 100 µM
CAKI-1 renal
  TGI: > 100 µM
SR leukemia
  TGI: > 100 µM
MALME-3M melanoma
  TGI: > 100 µM
786-0 renal
  TGI: > 100 µM
A498 renal
  TGI: > 100 µM
MDA-MB-231 breast
  TGI: > 100 µM
NCI-H460 lung
  TGI: > 100 µM
SNB-19 CNS
  TGI: > 100 µM

## Cc1ccc(C(C)C)c(OCC(=O)N/N=C/c2c[nH]c3ccc(Br)cc23)c1
HOP-92 NSCLC
  TGI: 27.8 µM
MCF7 breast
  TGI: 11.2 µM
M14 melanoma
  TGI: 4.63 µM
OVCAR-8 ovarian
  TGI: 15 µM
SF-295 CNS
  TGI: 10.7 µM
K-562 leukemia
  TGI: 11.4 µM
U251 CNS
  TGI: 11.1 µM
HT29 colon
  TGI: 4.78 µM
HL-60(TB) leukemia
  TGI: 7.42 µM
MOLT-4 leukemia
  TGI: 14.2 µM
CAKI-1 renal
  TGI: 11.5 µM
SR leukemia
  TGI: 4.97 µM
MALME-3M melanoma
  TGI: 21.8 µM
786-0 renal
  TGI: 12.6 µM
A498 renal
  TGI: 15.5 µM
MDA-MB-231 breast
  TGI: 9.89 µM
NCI-H460 lung
  TGI: 6.4 µM
SNB-19 CNS
  TGI: 9.59 µM

## CC[C@@H]([C@H](O)c1ccccc1Cl)[N+](=O)[O-]
HOP-92 NSCLC
  TGI: > 100 µM
MCF7 breast
  TGI: > 100 µM
M14 melanoma
  TGI: > 100 µM
OVCAR-8 ovarian
  TGI: > 100 µM
SF-295 CNS
  TGI: > 100 µM
U251 CNS
  TGI: > 100 µM
HCC-2998 colon
  TGI: > 100 µM
HT29 colon
  TGI: > 100 µM
HL-60(TB) leukemia
  TGI: > 100 µM
CAKI-1 renal
  TGI: > 100 µM
SR leukemia
  TGI: > 100 µM
786-0 renal
  TGI: > 100 µM
A498 renal
  TGI: > 100 µM
MDA-MB-231 breast
  TGI: > 100 µM
NCI-H460 lung
  TGI: > 100 µM
SNB-19 CNS
  TGI: > 100 µM

## COC(=O)CSc1nc2[nH]c(SC)c(C(N)=O)c2c(=O)n1-c1ccccc1
HOP-92 NSCLC
  TGI: > 10 µM
MCF7 breast
  TGI: > 10 µM
M14 melanoma
  TGI: > 10 µM
OVCAR-8 ovarian
  TGI: > 10 µM
SF-295 CNS
  TGI: > 10 µM
K-562 leukemia
  TGI: > 10 µM
HCC-2998 colon
  TGI: > 10 µM
HT29 colon
  TGI: > 10 µM
HL-60(TB) leukemia
  TGI: > 10 µM
MOLT-4 leukemia
  TGI: > 10 µM
CAKI-1 renal
  TGI: > 10 µM
SR leukemia
  TGI: > 10 µM
MALME-3M melanoma
  TGI: > 10 µM
786-0 renal
  TGI: > 10 µM
MDA-MB-231 breast
  TGI: > 10 µM
